Data reported in patent US20230021448A1, “COMPOUNDS AND COMPOSITIONS FOR TREATING CONDITIONS ASSOCIATED WITH STING ACTIVITY” (IFM Due, Inc., priority 2019, published 2023).
pEC50: −log10 of the molar value.

Biological target: T1, STING (Homo sapiens, UniProt Q86WV6, G230A/H232R/R293Q/R71H)
T1 construct: host or cells: THP1-Dual KO-IFNAR2 cells
Assay: STING reporter assay: luciferase reporter activity in THP1-Dual KO-IFNAR2 cells stimulated with 2'3'cGAMP
Type: cell-based
Settings: 2′3′cGAMP 15 μM final, 24h, read-out: hSTING: EC50
Summary of the method: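 THP1-Dual KO-IFNAR2 cells (2×10E6 cells/mL) incubated with compounds at 0.0017-100 μM final plus Lipofectamine-transfected 2′3′cGAMP (15 μM final), 24 h at 37 °C, 5% CO2. Luciferase in supernatant read by QUANTI-Luc luminescence; EC50 derived.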

T1 sequence (Q86WV6 whole entry R71H/G230A/H232R/R293Q): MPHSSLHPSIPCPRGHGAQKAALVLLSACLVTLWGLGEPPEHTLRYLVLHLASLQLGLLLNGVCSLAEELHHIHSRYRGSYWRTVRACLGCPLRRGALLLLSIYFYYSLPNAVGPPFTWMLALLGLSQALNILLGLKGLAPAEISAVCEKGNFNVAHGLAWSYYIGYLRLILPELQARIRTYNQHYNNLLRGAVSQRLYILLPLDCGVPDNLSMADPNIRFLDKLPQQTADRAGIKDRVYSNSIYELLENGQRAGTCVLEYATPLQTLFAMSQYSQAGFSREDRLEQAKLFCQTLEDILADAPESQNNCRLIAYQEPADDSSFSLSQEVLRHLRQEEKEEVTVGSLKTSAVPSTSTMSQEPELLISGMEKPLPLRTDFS

SMILES	pEC50
O=C(NCCOc1cccnc1)C(=O)Nc1c[nH]c2cc(F)c(F)cc12 [Compound 290, N-(5,6-difluoro-1H-indol-3-yl)-N′-[2-(pyridin-3-yloxy)ethyl] ethanediamide]	4.00 to 5.30
C[C@@H](NC(=O)C(=O)Nc1c[nH]c2cc(F)c(F)cc12)c1cccc(C(F)(F)F)c1 [Compound 291, N-(5,6-difluoro-1H-indol-3-yl)-N′-[(1R)-1-[3-(trifluoromethyl)phenyl]ethyl] ethanediamide]	6.00 to 6.70
O=C(Nc1ccc2c(c1)OC(F)(F)O2)C(=O)Nc1c[nH]c2cc(F)c(F)cc12 [Compound 292, N-(5,6-difluoro-1H-indol-3-yl)-N′-(2,2-difluoro-2H-1,3-benzodioxol-5-yl)ethanediamide]	6.00 to 6.70
COc1cc(NC(=O)C(=O)Nc2c[nH]c3cc(F)c(F)cc23)ccc1N1CCCC1 [Compound 293, N-(5,6-difluoro-1H-indol-3-yl)-N′-[3-methoxy-4-(pyrrolidin-1-yl)phenyl] ethanediamide]	6.00 to 6.70
O=C(NCCN1CCCc2ccccc21)C(=O)Nc1c[nH]c2cc(F)c(F)cc12 [Compound 294, N-(5,6-difluoro-1H-indol-3-yl)-N′-[2-(1,2,3,4-tetrahydroquinolin-1-yl)ethyl]ethanediamide]	6.00 to 6.70
C#Cc1cc(NC(=O)C(=O)Nc2c[nH]c3cc(F)c(F)cc23)ccc1Cl [Compound 295, N′-(4-chloro-3-ethynylphenyl)-N-(5,6-difluoro-1H-indol-3-yl)ethanediamide]	6.00 to 6.70
O=C(Nc1cnc2sccc2c1)C(=O)Nc1c[nH]c2cc(F)c(F)cc12 [Compound 296, N′-(5,6-difluoro-1H-indol-3-yl)-N-{thieno[2,3-b]pyridin-5-yl}ethanediamide]	6.00 to 6.70
CC(C)(C)OC(=O)N1CCC2(CCC(NC(=O)C(=O)Nc3c[nH]c4cc(F)c(F)cc34)CC2)CC1 [Compound 297, tert-butyl 9-{[(5,6-difluoro-1H-indol-3-yl)carbamoyl] formamido}-3-azaspiro[5.5]undecane-3-carboxylate]	6.00 to 6.70
C[C@H](NC(=O)C(=O)Nc1c[nH]c2cc(F)c(F)cc12)c1ccc(C(F)(F)F)cn1 [Compound 298, N-(5,6-difluoro-1H-indol-3-yl)-N′-[(1S)-1-[5-(trifluoromethyl)pyridin-2-yl]ethyl]ethanediamide]	6.00 to 6.70
COc1ccc(CCNC(=O)C(=O)Nc2c[nH]c3cc(F)c(F)cc23)cn1 [Compound 299, N-(5,6-difluoro-1H-indol-3-yl)-N′-[2-(6-methoxypyridin-3-yl)ethyl]ethanediamide]	5.30 to 6.00
O=C(Nc1c[nH]c2cc(F)c(F)cc12)C(=O)NC1CCC(O)(C(F)(F)F)CC1 (centres unmarked) [Compound 300, N-(5,6-difluoro-1H-indol-3-yl)-N′-[4-hydroxy-4-(trifluoromethyl)cyclohexyl] ethanediamide]	4.00 to 5.30
O=C(Nc1c[nH]c2cc(F)c(F)cc12)C(=O)NC1COc2ccccc2C1 (centres unmarked) [Compound 301, N-(5,6-difluoro-1H-indol-3-yl)-N′-(3,4-dihydro-2H-1-benzopyran-3-yl)ethanediamide]	6.00 to 6.70
O=C(Nc1ccc(C(F)(F)F)cc1)C(=O)Nc1c[nH]c2ccc(Br)cc12 [Compound 302]	6.70 to 7.40
CC(NC(=O)C(=O)Nc1c[nH]c2cc(F)c(F)cc12)c1cc(C(F)(F)F)c(Cl)cn1 (centres unmarked) [Compound 303]	6.00 to 6.70
O=C(NCc1ccc2ccccc2n1)C(=O)Nc1c[nH]c2cc(F)c(F)cc12 [Compound 304, N-(5,6-difluoro-1H-indol-3-yl)-N′-[(quinolin-2-yl)methyl] ethanediamide]	6.00 to 6.70
O=C(NCCOC1CCCC1)C(=O)Nc1c[nH]c2cc(F)c(F)cc12 [Compound 305, N'-[2-(cyclopentyloxy)ethyl]-N-(5,6-difluoro-1H-indol-3-yl)ethanediamide]	6.00 to 6.70
CN(C(=O)CNC(=O)C(=O)Nc1c[nH]c2cc(F)c(F)cc12)c1ccccc1 [Compound 306, N-(5,6-difluoro-1H-indol-3-yl)-N′-{[methyl(phenyl)carbamoyl]methyl} ethanediamide]	5.30 to 6.00
CN(CCCNC(=O)C(=O)Nc1c[nH]c2cc(F)c(F)cc12)c1ccccc1 [Compound 307, N-(5,6-difluoro-1H-indol-3-yl)-N′-{3-[methyl(phenyl)amino]propyl}ethanediamide]	6.00 to 6.70
CN(C)CC(NC(=O)C(=O)Nc1c[nH]c2cc(F)c(F)cc12)c1ccccc1 (centres unmarked) [Compound 308, N-(5,6-difluoro-1H-indol-3-yl)-N′-[2-(dimethylamino)-1-phenylethyl] ethanediamide]	4.00 to 5.30
O=C(NCC(=O)N1CCc2ccccc21)C(=O)Nc1c[nH]c2cc(F)c(F)cc12 [Compound 309, N-(5,6-difluoro-1H-indol-3-yl)-N′-[2-(2,3-dihydro-1H-indol-1-yl)-2-oxoethyl] ethanediamide]	6.00 to 6.70
COCC(NC(=O)C(=O)Nc1c[nH]c2cc(F)c(F)cc12)c1ccccc1 (centres unmarked) [Compound 310, N-(5,6-difluoro-1H-indol-3-yl)-N′-(2-methoxy-1-phenylethyl) ethanediamide]	5.30 to 6.00
CCC(NC(=O)C(=O)Nc1c[nH]c2cc(F)c(F)cc12)c1cccc(C(F)(F)F)c1 (centres unmarked) [Compound 311, N-(5,6-difluoro-1H-indol-3-yl)-N′-{1-[3-(trifluoromethyl)phenyl]propyl} ethanediamide]	6.00 to 6.70
O=C(Nc1c[nH]c2cc(F)c(F)cc12)C(=O)NC(c1ccccc1)C(F)(F)F (centres unmarked) [Compound 312, N1-(5,6-difluoro-1H-indol-3-yl)-N2-(2,2,2-trifluoro-1-phenylethyl)oxalamide]	6.00 to 6.70
O=C(Nc1c[nH]c2cc(F)c(F)cc12)C(=O)NC1CCc2ccccc2C1 (centres unmarked) [Compound 313, N-(5,6-difluoro-1H-indol-3-yl)-N′-(1,2,3,4-tetrahydronaphthalen-2-yl)ethanediamide]	6.00 to 6.70
O=C(Nc1c[nH]c2cc(F)c(F)cc12)C(=O)NC1CCC2(CCCC2)CC1 [Compound 314]	6.00 to 6.70
O=C(Nc1c[nH]c2cc(F)c(F)cc12)C(=O)NC1CCC(Oc2ccc(C(F)(F)F)cc2)CC1 (centres unmarked) [Compound 315]	6.70 to 7.40
O=C(Nc1c[nH]c2cc(F)c(F)cc12)C(=O)NC1CCC(Oc2ccccn2)CC1 (centres unmarked) [Compound 316]	6.00 to 6.70

SMILES	pEC50
O=C(Nc1c[nH]c2cc(F)c(F)cc12)C(=O)N1CCC(Oc2ccc(C(F)(F)F)cc2)CC1 [Compound 317]	6.00 to 6.70
Cc1cnc(CNC(=O)C(=O)Nc2c[nH]c3cc(F)c(F)cc23)cc1C(F)(F)F [Compound 318]	6.00 to 6.70
N#Cc1ccc2[nH]cc(NC(=O)C(=O)NCc3ccc(C(F)(F)F)c(Cl)c3)c2c1 [Compound 321]	6.00 to 6.70
CN(CCNC(=O)C(=O)Nc1c[nH]c2cc(F)c(F)cc12)c1ccccn1 [Compound 322]	6.00 to 6.70
Cc1cc2c(cn1)C(NC(=O)C(=O)Nc1c[nH]c3cc(F)c(F)cc13)CCC2 (centres unmarked) [Compound 323]	6.00 to 6.70
O=C(NCc1ccnc(N2CCCCC2)c1)C(=O)Nc1c[nH]c2cc(F)c(F)cc12 [Compound 324]	6.00 to 6.70
O=C(NCCOc1cncc(C(F)(F)F)c1)C(=O)Nc1c[nH]c2cc(F)c(F)cc12 [Compound 325]	6.00 to 6.70
O=C(NCc1cccc(N2CCCCC2)n1)C(=O)Nc1c[nH]c2cc(F)c(F)cc12 [Compound 326]	6.00 to 6.70
O=C(NCCOc1ccc(C(F)(F)F)nc1)C(=O)Nc1c[nH]c2cc(F)c(F)cc12 [Compound 327]	6.00 to 6.70
CC(CN(C)c1ccccc1)NC(=O)C(=O)Nc1c[nH]c2cc(F)c(F)cc12 (centres unmarked) [Compound 328]	6.00 to 6.70
CN(CCNC(=O)C(=O)Nc1c[nH]c2cc(F)c(F)cc12)c1ccccc1 [Compound 331]	6.00 to 6.70
O=C(Nc1c[nH]c2cc(F)c(F)cc12)C(=O)NC1CCN(c2cccnc2)C1 (centres unmarked) [Compound 332]	5.30 to 6.00
O=C(NCc1cnc(C2CCC(F)(F)CC2)c(F)c1)C(=O)Nc1c[nH]c2cc(F)c(F)cc12 [Compound 333]	6.00 to 6.70
O=C(NCc1ccc(Cl)c(C(F)(F)F)n1)C(=O)Nc1c[nH]c2cc(F)c(F)cc12 [Compound 334]	6.00 to 6.70
O=C(NCc1cc(C(F)(F)F)c(Cl)cn1)C(=O)Nc1c[nH]c2cc(F)c(F)cc12 [Compound 335]	6.70 to 7.40
O=C(Nc1c[nH]c2cc(F)c(F)cc12)C(=O)NC1CCN(Cc2cccc(C(F)(F)F)c2)C1 (centres unmarked) [Compound 336]	6.00 to 6.70
O=C(Nc1c[nH]c2cc(F)c(F)cc12)C(=O)NC1CCN(c2ccc(C(F)(F)F)cn2)C1 (centres unmarked) [Compound 337]	6.00 to 6.70
O=C(NCc1cccc(C(F)(F)F)n1)C(=O)Nc1c[nH]c2cc(F)c(F)cc12 [Compound 338]	6.00 to 6.70
O=C(NCc1ccc(C(F)(F)F)c(Cl)c1)C(=O)Nc1c[nH]c2ccc(CCO)cc12 [Compound 339, N-(3-chloro-4-(trifluoromethyl)benzyl)-N′-(5-(2-hydroxyethyl)-1H-indol-3-yl)oxalamide]	6.00 to 6.70
CC(C)(O)c1cccc(-c2ccc3[nH]cc(NC(=O)C(=O)NCc4ccc(C(F)(F)F)c(Cl)c4)c3c2)c1 [Compound 340]	5.30 to 6.00
CC(C)n1cc(-c2cc3c(NC(=O)C(=O)Nc4ccc(C(F)(F)F)cc4)c[nH]c3cc2F)cn1 [Compound 341, N-(6-fluoro-5-(1-isopropyl-1H-pyrazol-4-yl)-1H-indol-3-yl)-N′-(4-(trifluoromethyl)phenyl)oxalamide]	6.00 to 6.70
O=C(NCc1ccnc(C(F)(F)F)c1)C(=O)Nc1c[nH]c2cc(F)c(F)cc12 [Compound 342]	6.00 to 6.70
O=C(NCc1cncc(C(F)(F)F)c1)C(=O)Nc1c[nH]c2cc(F)c(F)cc12 [Compound 343]	6.00 to 6.70
O=C(NCc1ccc(C(F)(F)F)nc1)C(=O)Nc1c[nH]c2cc(F)c(F)cc12 [Compound 344]	6.00 to 6.70
CC(C)n1cc(-c2ccc3[nH]cc(NC(=O)C(=O)Nc4ccc(C(F)(F)F)cc4)c3c2)cn1 [Compound 346]	6.00 to 6.70
O=C(NC[C@@H](c1ccccc1)C(F)F)C(=O)Nc1c[nH]c2cc(F)c(F)cc12 [Compound 348]	6.00 to 6.70
